Tests used:
[1] = molecular target: T1, EGFR (Homo sapiens, UniProt P00533); assay: Assay for modulation of EGFR activity (ELISA); assay type: biochemical; conditions: read-out: bio EGFR IC50
T1 construct: A431 […] cell lysate is stored at −80° C; host or cells: A431 cell lysate
Experimental: Using the following reagents, supplies, and method, the ability of compounds of the invention to modulate the in vitro activity of EGFR can be readily determined in an ELISA.
A431 […] cell lysate is stored at −80° C.
ATP/MnCl2 phosphorylation mix is prepared by adding 300 μL of 1.0 mM ATP and […] of 1M MnCl2 to 9.2 mL of dH2O and mixing. Ten mL of phosphorylation mix is enough for about 6 assay plates. Note that the mixture should be made fresh and kept on ice immediately before use, and that although the preferred ATP is fresh from powder stock, any remaining stock solution of ATP may be frozen at −20° C. in small aliquots to be used at a later time.
Coat Corning 96 well ELISA plates with 0.5 μg per well with SUMO1 in a volume of 100 μL PBS overnight, at 4° C. Remove unbound SUMO1 from wells by inverting plate to remove liquid. Wash 1× with distilled H2O by filling wells. Pat the plate on a paper towel to remove excess liquid.
Add 150 μL of Blocking Buffer to each well. Incubate for 30 minutes at room temperature, with shaking. Wash plate 3× with deionized water, then once with TBST. Pat plate on a paper towel to remove excess liquid and bubbles.
Dilute lysate in PBS (7 μg lysate/[…]) and add 100 μL of diluted lysate to each well. Shake at room temperature for 60 minutes. Wash 1× with distilled H2O by filling wells. Pat the plate on a paper towel to remove excess liquid.
Add 120 μL TBST to ELISA plate containing captured EGFR.
Dilute drugs/extracts 1:10 (unless specified otherwise) in TBST in 96-well polypropylene plates. (i.e., 10 μL compound+90 μL TBST). Add 13.5 μL diluted drugs/extracts to ELISA plate. […] Incubate for 30 minutes while shaking at room temperature.
Approximately 150 μL final volume in well with 3 uM ATP/5 mM MnCl2 final concentration in well. Incubate 5 minutes while shaking. Note that this is a timed event. It is critical that ATP/MnCl2 phosphorylates the receptor for only 5 minutes. It is best to add the ATP/MnCl2 with an automated 96 place pipettor workstation, then 5 minutes later stop the reaction with EDTA using the same workstation. Alternatively, addition can be performed using a 12 channel pipettor 1 row at a time, leaving 20 seconds between each row so that the reaction may be stopped with EDTA exactly 5 minutes later (this depends on the number of plates being phosphorylated in one batch). Shake between each addition.
[…] This is done using either the same work station as above, or the same timing method employed with the 12 channel pipettor. After the EDTA has been added, shake for 1 minute. Wash 4× with deionized water, twice with TBST.
Add 100 μL per well of anti-phosphotyrosine (1:3000 dilution in TBST). Incubate 30-45 minutes at room temperature, with shaking. Wash 1× with distilled H2O by filling wells. Pat the plate on a paper towel to remove excess liquid.
Incubate 30 minutes at room temperature, with shaking. Wash 1× with distilled H2O by filling wells. Pat the plate on a paper towel to remove excess liquid.
Add 100 μL of ABTS/H2O2 solution to each well. Incubate 5 to 10 minutes while shaking. Remove any bubbles. If necessary stop reaction with the addition of 100 μL of 0.2M HCl per well.
Read assay on Dynatech MR7000 ELISA reader.

[2] = molecular target: T2, HER-2 (Homo sapiens, UniProt P04626); assay: Assay for modulation of HER-2 activity in whole cells (ELISA); assay type: cell-based; conditions: EGFR/HER-2chimera/#T3-C7 cell lines, EGF stimulated; read-out: HER-2 kinase IC50
T2 construct: expressed in mouse 3T3 (clone C7) cells; P00533 (Epidermal growth factor receptor)
Experimental: Using the following reagents, supplies, and method, the ability of compounds of the invention to affect the activity of HER-2 in whole cells in an ELISA format can be assigned.
EGFR/HER-2chimera/#T3-C7 cell lines are used for this assay. Choose dishes having 80-90% confluence for the experiment. Collect cells by trypsinization and centrifuge at 1000 rpm at room temperature for 5 minutes.
Resuspend cells in starve medium and count with trypan blue. Only viability above 90% is acceptable. Seed cells in starve medium at a density of 2,500 cells per well, 90 μL per well, in a 96 well microtiter plate. Incubate seeded cells in 5% CO2 at 37° C. overnight. Start the assay two days after seeding.
Samples are diluted directly into a polypropylene plate containing starve-DMEM (non-sterile is okay). This dilution will be 1:10 or greater, depending on the samples being screened. The same amount of DMSO is put into the control wells. […] are then transferred to the cell plate at a 1:10 dilution (10 μL of sample and media into 90 μL of starve media). The final DMSO concentration will be 1% or lower.
Ten samples are put into wells 2-11 of row A of the NUNC 96 well polypropylene plate. These wells contain straight starve-DMEM. For a 1:10 dilution, one would put 10 μL of drug into 90 μL of media. The rest of the wells (including the controls) will have a DMSO/media mixture. The percentage of DMSO in this mixture is determined by the first dilution factor, in this case 1:10. The DMSO concentration is therefore 10%. An equal amount of drug and media from row A is put into row B, containing DMSO and media. The same amount is then taken out and put into row C. This is repeated for all rows. These are 1:2 dilutions. All wells are then transferred to the cell plate at a 1:10 dilution (10 μL of sample and media into 90 μL of starve-DMEM. The final DMSO concentration will be 1% or lower. […]
After a 2 hour incubation with the drug, add prepared EGF ligand to cells at 50 μL per well, for a final concentration of 50 nM. Positive control wells (8) receive the same amount of EGF. […] Incubate at 37° C. for 10 minutes.
Remove drug, EGF, and DMEM by dumping in sink. Wash cells once with PBS.
Transfer HNTG* to cells, 100 μL per well. Place on ice for 5 minutes. Meanwhile, remove blocking buffer from ELISA plate and wash as described above. With a pipette tip securely fitted to a micropipettor, scrape cells from plate and homogenize cell material by repeatedly aspirating and dispensing the HNTG* lysis buffer. Transfer lysate to a coated, blocked, washed ELISA plate. Alternatively, one may use a Costar transfer cartridge to transfer lysate to the ELISA plate. Incubate, shaking, at room temperature for one hour.
Remove lysate by dumping in sink, then wash as described earlier. Transfer freshly diluted anti-phosphotyrosine (anti-Ptyr) antibody (1:3000 in TEST) to ELISA plate, 100 μL per well. Incubate, shaking, at room temperature, for 30 minutes.
Remove anti-Ptyr antibody by dumping in sink, then wash as described earlier. Transfer freshly diluted BIOSOURCE antibody to ELISA plate, (1:8000 in TEST), 100 μL per well. Incubate, shaking, at room temperature for 30 minutes.
Remove BIOSOURCE antibody by dumping in sink, then wash as described earlier. Transfer freshly prepared ABTS/H2O2 solution to ELISA plate, […]. Incubate 5-10 minutes while shaking. Remove any bubbles and if necessary, stop reaction with the addition of 100 μL of 0.2 M HCl per well.
Read assay on Dynatech MR7000 ELISA reader. Test Filter: […]; Reference Filter: […]. A preferred template for the placement of controls in this experiment is provided below: […]

T2 sequence (P04626 720-987 limits assumed): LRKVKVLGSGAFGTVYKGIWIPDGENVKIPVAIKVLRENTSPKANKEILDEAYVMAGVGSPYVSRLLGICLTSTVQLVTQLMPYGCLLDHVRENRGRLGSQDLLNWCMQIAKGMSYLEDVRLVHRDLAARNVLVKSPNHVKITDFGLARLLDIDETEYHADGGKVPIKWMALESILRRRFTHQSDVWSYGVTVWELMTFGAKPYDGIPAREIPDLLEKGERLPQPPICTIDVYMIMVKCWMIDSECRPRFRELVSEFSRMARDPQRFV
T1 sequence (P00533 25-1210): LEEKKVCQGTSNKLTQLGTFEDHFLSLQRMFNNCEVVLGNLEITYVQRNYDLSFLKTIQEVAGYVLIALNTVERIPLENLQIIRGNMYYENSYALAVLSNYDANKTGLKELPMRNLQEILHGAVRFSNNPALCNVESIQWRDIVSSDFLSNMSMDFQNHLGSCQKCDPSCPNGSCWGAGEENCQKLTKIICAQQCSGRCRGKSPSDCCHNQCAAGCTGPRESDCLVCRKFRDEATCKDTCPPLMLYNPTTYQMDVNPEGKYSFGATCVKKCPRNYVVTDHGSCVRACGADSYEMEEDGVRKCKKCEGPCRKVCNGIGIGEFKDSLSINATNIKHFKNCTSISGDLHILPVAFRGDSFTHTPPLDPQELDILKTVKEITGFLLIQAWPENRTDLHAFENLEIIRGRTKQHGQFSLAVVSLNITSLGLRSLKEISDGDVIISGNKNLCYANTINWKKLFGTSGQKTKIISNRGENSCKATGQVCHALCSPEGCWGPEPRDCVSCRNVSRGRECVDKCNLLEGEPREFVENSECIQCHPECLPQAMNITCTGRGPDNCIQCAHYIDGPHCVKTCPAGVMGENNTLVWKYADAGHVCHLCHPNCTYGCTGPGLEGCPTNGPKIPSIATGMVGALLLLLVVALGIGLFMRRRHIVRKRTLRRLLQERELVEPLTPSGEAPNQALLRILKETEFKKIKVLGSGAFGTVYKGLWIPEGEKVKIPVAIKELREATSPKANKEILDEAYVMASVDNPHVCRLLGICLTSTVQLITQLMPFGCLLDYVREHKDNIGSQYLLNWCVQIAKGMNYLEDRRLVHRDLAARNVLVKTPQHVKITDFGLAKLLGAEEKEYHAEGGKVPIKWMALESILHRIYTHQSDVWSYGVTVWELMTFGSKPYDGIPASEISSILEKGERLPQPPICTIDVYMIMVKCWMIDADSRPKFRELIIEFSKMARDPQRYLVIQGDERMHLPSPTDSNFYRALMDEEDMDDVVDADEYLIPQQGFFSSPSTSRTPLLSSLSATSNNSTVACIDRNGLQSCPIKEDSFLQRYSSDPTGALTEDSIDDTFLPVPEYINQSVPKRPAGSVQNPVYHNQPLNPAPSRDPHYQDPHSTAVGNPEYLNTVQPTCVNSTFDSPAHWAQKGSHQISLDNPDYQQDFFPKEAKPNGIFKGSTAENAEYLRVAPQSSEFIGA

SMILES	IC50 [1] [nM]	IC50 [2] [nM]
Cc1cc(C(=O)NCCN2CCOCC2)[nH]c1/C=C1\C(=O)N(C)c2ncnc(Nc3ccc(F)c(Cl)c3)c21 [Formula 32]	7140	18700
Cc1cc(/C=C2\C(=O)Nc3ncnc(Nc4ccc(F)c(Cl)c4)c32)[nH]c1C(=O)N1CCN(C)CC1 [Formula 35]	400	590

Continued, values first:

IC50 [1] [nM]	IC50 [2] [nM]	SMILES
58	11900	Cc1cc(CCC(=O)N2CCN(C)CC2)[nH]c1/C=C1\C(=O)Nc2ncnc(Nc3ccc(F)c(Cl)c3)c21 [Formula 25]
210	160	CCN(CC)CCNC(=O)c1c(C)[nH]c(/C=C2\C(=O)Nc3ncnc(Nc4ccc(F)c(Cl)c4)c32)c1C [Formula 28]
5	1800	Cc1cc(CCC(=O)O)[nH]c1/C=C1\C(=O)Nc2ncnc(Nc3ccc(F)c(Cl)c3)c21 [Formula 49]
38	860	Cc1[nH]c(/C=C2\C(=O)Nc3ncnc(Nc4ccc(F)c(Cl)c4)c32)c(C)c1CC(=O)O [Formula 51]

Source: patent US6908930B2, “4-substituted 7-AZA-indolin-2-ones and their use as protein kinase inhibitors” (Sugen, Inc., priority 1999, dated 2005)
